Several values for one entry are separate records, joined by “and”; a condition that tells them apart may be missing. Equal entries are not always repeated. Entries after “also recorded” stand apart in the source; their conditions may differ. Where two headings read alike, the source gives them in different places.
Columns and labels:
Daoy = experiment: brain tumor cell line growth inhibition, Daoy; type: cell-based; settings: Homo sapiens, desmoplastic cerebellar medulloblastoma
Procedure: (§1) These GI50s were determined using standard tumor growth inhibition assays.

SK-N-MC = experiment: brain tumor cell line growth inhibition, SK-N-MC; type: cell-based; settings: Homo sapiens, neuroepithelioma
Procedure: as §1

SW1088 = experiment: brain tumor cell line growth inhibition, SW1088; type: cell-based; settings: Homo sapiens; SW1088, astrocytoma
Procedure: as §1

LN-18 = experiment: brain tumor cell line growth inhibition, LN-18; type: cell-based; settings: Homo sapiens; LN-18, glioblastoma; glioma
Procedure: as §1

SK-N-FI = experiment: brain tumor cell line growth inhibition, SK-N-FI; type: cell-based; settings: Homo sapiens, neuroblastoma
Procedure: as §1

U87 = experiment: brain tumor cell line growth inhibition, U87; type: cell-based; settings: Homo sapiens, U-87 MG; U87, glioblastoma; astrocytoma
Procedure: as §1

GL261 = experiment: brain tumor cell line growth inhibition, GL261; type: cell-based; settings: GL261, mouse glioblastoma
Procedure: as §1

[1] = plasma and brain exposure after single oral dose; type: in vivo, Male CD-1 Mice; settings: for Brain Concentrations, Group A, B, C / Plasma Concentrations, Group A, B, C / concentration at 0 h: 0 hr; for Kp: brain and plasma, read-out: AUClast Brain/AUClast Plasma Ratio
Procedure: […] The concentration of Compound 76 was measured in plasma and in brain tissue homogenates.
Plasma concentrations were measured in mice after oral administration. All doses were formulated in purified water. Four groups of male CD-1 mice were dosed after an overnight fast and fed 4 hours post-dose. Dosing was as follows:
Protein was precipitated with 0.25 mL acetonitrile for plasma, 0.25 mL for brain. After centrifugation, supernatant was directly injected into an LC/MS system. The limit of quantitation was 1 ng/mL using a 50 μL aliquot for plasma and a […] aliquot for brain. The standard curve was 1 to 1,000 ng/mL for both plasma and brain.
HPLC conditions were as follows:
• HPLC System: Shimadzu SCL-10 System • Analytical Column: Aquasil C18 5 μm 100×2 mm column. • Column Temperature: Ambient temperature • Autosampler Temperature: Ambient temperature • Mobile Phase • A) 10 mM Ammonium formate in water (pH 4). • B) Acetonitrile. • Flow Rate: 0.6 mL/min • Injection Volume: 2 μL

GL261 glioma [2] = experiment: intracranial GL261 glioma survival study; type: in vivo, C57BL/6 mice
Procedure: The studies were conducted in C57BL/6 mice. GL261 glioma cells (1×10^5 in 5 μl DMEM) were implanted intracranial coordinates: bregma, lateral 2.0 mm, anterior 1.2 mm, 3.0 mm depth dura. Treatment was initiated 3 days post implantation.
The median survival range and the log-rank (Mantel-Cox) statistical test results comparing the survival distributions of the samples.

GL261 glioma [3] = experiment: orthotropic GL261 glioma model, immune-competent mice; type: in vivo, C57BL/6 mice
Source text: FIGS. 4A-C are a series of graphs showing the survival of C57BL6 mice with intracerebral GL261 glioma implants. Mice received intracerebral implants of 1×10^5 GL261 cells by stereotactic injection at 2 mm lateral, 1 mm anterior to bregma at 3 mm depth. After 4 days mice began indicated regimen of oral Compound 76. […] Compound 76 extended median survival from 21 to 29 days (range). n=10. […] Compound 76 extended median survival >100 days (range), with up to 60% of drug treated mice experiencing complete tumor regression, n=10. Long term survivors were confirmed tumor free by high field MRI in FIG. 6. […] See high field MRI in FIG. 6
(§2) Compound 76 was also evaluated in the orthotropic GL261 glioma model in immune-competent, syngeneic C57BL/6 mice. Mice implanted intracerebrally with 1×10^5 GL261 cells treated with vehicle alone (saline) have a median survival time (MeST) of 21 days (range 18-28). Mice treated by oral Compound 76 (30 mg/kg, b.i.d.) have a MeST of 30.5 days ranging 23-32 days. In contrast, when Compound 76 is given orally at (30 mg/kg, s.i.d.) the MeST increases to over 120 days, with more than 60% of the treatment group still alive 12 months later (p<0.0001). […] Further experiments were performed using a SCID version of C57BL/6 mice (B6.CB17-Prkdc^scid/SzJ), a mouse model of B6 background, but is immune-compromised.
as §2, with “was” for “was also”

[4] = PO 10 mg/kg (Group 3), single values
[5] = PO 50 mg/kg (Group 4), single values
[6] = male, CD-1, mouse, brain, po, 10 mg/kg, PO 10 mg/kg (Group 3), BLQ = 0, read-out: Brain Concentrations, Mean
[7] = male, CD-1, mouse, brain, po, 50 mg/kg, PO 50 mg/kg (Group 4), read-out: Brain Concentrations, Mean
[8] = male, CD-1, mouse, plasma, po, 10 mg/kg, PO 10 mg/kg (Group 3), read-out: Plasma Concentrations, Mean
[9] = male, CD-1, mouse, plasma, po, 50 mg/kg, PO 50 mg/kg (Group 4), read-out: Plasma Concentrations, Mean
[10] = male, CD-1, mouse, po, Brain, single dose of 50 mg/kg (Group 4)
[11] = male, CD-1, mouse, po, Plasma, single dose of 50 mg/kg (Group 4)
[12] = male, CD-1, mouse, Brain, single oral dose of 10 mg/kg
[13] = male, CD-1, mouse, Plasma, single oral dose of 10 mg/kg

Compound `O=C(Cc1ccc(-c2ccc(N3CCOCC3)cc2)cn1)NCc1cccc(F)c1` [Compound 76] has an IC50 (Daoy) of 54.9 nM, an IC50 (SK-N-MC) of 0.13 nM and an IC50 (SW1088) of 22.1 nM. For the same compound, the IC50 (LN-18) was 2.9 nM, the IC50 (SK-N-FI) was 0.46 nM and the IC50 (U87) was 9.7 nM. For the same compound, the IC50 (GL261) was 8.8 nM, the AUClast ([1]; Brain, single dose of 50 mg/kg (Group 4)) was 3338 ng·h/g and the AUClast ([1]; Brain, single oral dose of 10 mg/kg) was 656 ng·h/g. For the same compound, the “Brain Concentrations, Group A, B, C” value [1, 4] was “BLQ (Below Limit of Quantitation (1 ng/mL))”, the “Plasma Concentrations, Group A, B, C” value [1, 4] was “BLQ (Below Limit of Quantitation (1 ng/mL))” and the “Brain Concentrations, Group A, B, C” value [1, 5] was “BLQ (Below Limit of Quantitation (1 ng/mL))”. For the same compound, the “Plasma Concentrations, Group A, B, C” value [1, 5] was “BLQ (Below Limit of Quantitation (1 ng/mL))”, the Kp ([1]; male, CD-1, mouse, oral 10 mg/kg) was 0.76 and the Kp ([1]; male, CD-1, mouse, oral 50 mg/kg) was 0.61. The concentration at 0 h [1, 6] was 0 ng/g, the concentration at 0.5 h ([1]; male, CD-1, mouse, brain, po, 10 mg/kg, PO 10 mg/kg (Group 3), 0.5 hr, read-out: Brain Concentrations, Mean) was 99.8 ng/g and the concentration at 1 h ([1]; male, CD-1, mouse, brain, po, 10 mg/kg, PO 10 mg/kg (Group 3), 1 hr, read-out: Brain Concentrations, Mean) was 279 ng/g. For the same compound, the concentration at 1 h ([1]; male, CD-1, mouse, brain, po, 10 mg/kg, PO 10 mg/kg (Group 3), 1 hr, single values, read-out: Brain Concentrations, Group A, B, C) was 228 ng/g, the concentration at 2 h ([1]; male, CD-1, mouse, brain, po, 10 mg/kg, PO 10 mg/kg (Group 3), read-out: Brain Concentrations, Mean) was 175 ng/g and the concentration at 5 h [1, 6] was 31.8 ng/g. It also gave a concentration at 5 h ([1]; male, CD-1, mouse, brain, po, 10 mg/kg, PO 10 mg/kg (Group 3), single values, read-out: Brain Concentrations, Group A, B, C) of 47.5 ng/g, a concentration at 0 h ([1]; male, CD-1, mouse, brain, po, 50 mg/kg, PO 50 mg/kg (Group 4), BLQ = 0, read-out: Brain Concentrations, Mean) of 0 ng/g and a concentration at 0.5 hr ([1]; male, CD-1, mouse, brain, po, 50 mg/kg, PO 50 mg/kg (Group 4), 0.5 hr, read-out: Brain Concentrations, Mean) of 1380 ng/g. For the same compound, the concentration at 1 hr ([1]; male, CD-1, mouse, brain, po, 50 mg/kg, PO 50 mg/kg (Group 4), 1 hr, read-out: Brain Concentrations, Mean) was 1100 ng/g, the concentration at 2 h [1, 7] was 758 ng/g and the concentration at 5 h [1, 7] was 207 ng/g. The concentration at 0 h ([1]; male, CD-1, mouse, plasma, po, 10 mg/kg, PO 10 mg/kg (Group 3), BLQ = 0, read-out: Plasma Concentrations, Mean) was 0 ng/mL, the concentration at 0.5 h ([1]; male, CD-1, mouse, plasma, po, 10 mg/kg, PO 10 mg/kg (Group 3), 0.5 hr, read-out: Plasma Concentrations, Mean) was 148 ng/mL and the concentration at 1 h ([1]; male, CD-1, mouse, plasma, po, 10 mg/kg, PO 10 mg/kg (Group 3), 1 hr, read-out: Plasma Concentrations, Mean) was 426 ng/mL. It also gave a concentration at 2 h [1, 8] of 205 ng/mL, a concentration at 5 h [1, 8] of 40 ng/mL and a concentration at 0 h ([1]; male, CD-1, mouse, plasma, po, 50 mg/kg, PO 50 mg/kg (Group 4), BLQ = 0, read-out: Plasma Concentrations, Mean) of 0 ng/mL. It also gave a concentration at 0.5 h ([1]; male, CD-1, mouse, plasma, po, 50 mg/kg, PO 50 mg/kg (Group 4), 0.5 hr, read-out: Plasma Concentrations, Mean) of 1800 ng/mL, a concentration at 0.5 h ([1]; male, CD-1, mouse, plasma, po, 50 mg/kg, PO 50 mg/kg (Group 4), 0.5 hr, single values, read-out: Plasma Concentrations, Group A, B, C) of 1490 ng/mL and a concentration at 1 h ([1]; male, CD-1, mouse, plasma, po, 50 mg/kg, PO 50 mg/kg (Group 4), 1 hr, read-out: Plasma Concentrations, Mean) of 2140 ng/mL. It also gave a concentration at 2 h [1, 9] of 1300 ng/mL, a concentration at 5 h [1, 9] of 230 ng/mL and a Cmax [1, 10] of 1380 ng/g. For the same compound, the Tmax [1, 10] was 0.5 h, the AUC(0-t) [1, 11] was 5440 ng·h/mL and the Cmax [1, 11] was 2140 ng/mL. The Tmax [1, 11] was 1 h, the Cmax [1, 12] was 279 ng/g and the Tmax [1, 12] was 1 h. It also gave an AUC(0-t) [1, 13] of 863 ng·h/mL, a Cmax [1, 13] of 426 ng/mL and a Tmax [1, 13] of 1 h. The “brain penetration from plasma” value ([1]; single oral dose of 10 mg/kg) was 76%, the Median survival (GL261 glioma [2]; 15 mg/kg bid oral) was 30.5 and the “survival Range” value (GL261 glioma [2]; 15 mg/kg bid oral) was 25-34. For the same compound, the Median survival (GL261 glioma [2]; 30 mg/kg bid oral) was 29, the “survival Range” value (GL261 glioma [2]; 30 mg/kg bid oral) was 23-32 and the “residual tumor by MRI” value (GL261 glioma [3]; 30 mg/kg s.i.d., C57BL/6 mice) was “no residual tumor is observed”. For the same compound, the “histopathology of tumor site / residual GL261 glioma” value (GL261 glioma [3]; Compound 76 treated mice) was “large areas of necrosis and lymphocytic infiltration; also recorded: lymphocytic infiltration of the tumor site”, the brain edema (GL261 glioma [3]; compared with placebo or Temodar treated mice) was “much less brain edema” and the “median survival time (MeST), range” value (GL261 glioma [3]; oral 30 mg/kg, b.i.d.) was 23 to 32 days. The “median survival time (MeST)” value (GL261 glioma [3]; oral 30 mg/kg, b.i.d. (twice daily), vehicle 21 days, 30 mg/kg) was 29 days and 30.5 days, the “treatment group still alive 12 months later” value (GL261 glioma [3]; oral 30 mg/kg, s.i.d.) was “more than 60%” and the “growth rate of intracerebral GL261 glioma” value (GL261 glioma [3]; relative to control groups) was “very significantly slows the rate of tumor growth; also recorded: slows the growth rate”. For the same compound, the “treated mice with complete tumor regression” value (GL261 glioma [3]; single dose per day (s.i.d.)) was “up to 60%”.

From US8748423B2, “Compositions and methods for the prevention and treatment of cancer” (Kinex Pharmaceuticals, LLC, priority 2010, dated 2014)
